Where a name gives a salt, the structure may show the parent alone. Read-outs that look alike come from different tables or passages of the source.
Assays:
[1] = test system: Taq polymerase; conditions: cited from earlier work; for inhibitory concentration in PCR: final concentration
[2] = test system: Taq polymerase; assay type: biochemical; design: key to Effect of cofactors on serum albumin: BSA / Effect of cofactors on transferrin: Bovine Transferrin: The presence of product bands ("+") indicated that the cofactor was, in conjunction with transferrin or serum albumin, able to overcome inhibition
Procedure: (§1) Generally, PCR was carried out using 175-200 μM dNTPS (deoxyribonucleoside 5'-triphosphates) and 0.5 to 1.0 μM primers. Five units/100 μl of Taq polymerase were used. PCR reactions were overlaid with 30-100 μl light mineral oil. A typical PCR cycle for HIV amplification using a Perkin-Elmer Cetus DNA Thermal Cycler (Part No. N8010150) was: denaturation at 95° C. for 30 seconds; annealing at 55° C. for 30 seconds; and extension at 72° C. for 1 minute. PCR cycles were normally carried out in this manner for 35 cycles followed by 7 minutes at 72° C.
In some instances below, amplification of human histocompatibility (HLA) Class II genes was performed using primer pair GH26 (SEQ ID NO:2) and GH27 (SEQ ID NO:3) and human placental DNA to produce a 242-mer product (SEQ ID NO: 4). These primers and other primers are described in PCR Protocols: A Guide To Methods and Applications, Innis, M. A. et al. eds., pp. 261-271 (1990)).
Whole blood was prepared according to Mode III (see FIG. 1). Whole blood samples (100 μl) were lysed with protease K (0.5 mg/ml, 55° C. for 1 hour). The enzyme was inactivated by heating (95°-100°C., 10 minutes). Four sets of reactions were then set up involving the addition of interfering reagent to the protease lysate: 1) transferrin with 10 mM sodium bicarbonate; 2) transferrin with 20 mM sodium bicarbonate; 3) serum albumin with 10 mM sodium bicarbonate; and 4) serum albumin with no cofactor. These reaction were performed at room temperature for thirty minutes using a concentration range for transferrin and serum albumin (10, 25, 50, 75, 100, 150, 200 and 250 μg per 20 μl PCR rxn). PCR was then set up using the primer pair GH26/GH27 to produce a 242-mer product (see above). Two standard control reactions were run in separate tubes: i) a no nucleic acid target control; and 2) a positive control (human placental DNA). Four additional control lanes were run: 1) no inhibitor treatment (two lanes); 2) 10 mM sodium bicarbonate only (one lane); and 3) 50 μg transferrin only (one lane); and 4) transferrin with 10 mM sodium bicarbonate (two lanes). PCR was carried out for 35 cycles. The PCR products were thereafter electrophoresed (agarose) and visualized with ethidium bromide staining. The two above-named control reactions were electrophoresed in lanes 9 and 10 of FIG. 16A, respectively, as well as lanes 17 and 18 of FIG. 16B, respectively. In FIG. 16C, the positive control is in lane 1 and the negative control is in lane 2.
Whole blood was prepared according to Mode III (see FIG. 1). Whole blood samples (20 μl) were lysed with protease K (0.5 mg/ml, 55° C. for 1 hour). The enzyme was inactivated by heating (95°-100° C., 10 minutes). Reactions were then set up involving the addition of bovine transferrin or serum albumin with various cofactors, including bicarbonate ion, azide ion, thiocyanate ion, cyanate ion, oxalate ion, malonate ion, glycinate ion, and thioglycolate ion. These reaction were performed at room temperature for thirty minutes. PCR was then set up using the using primer pair GH26/GH27 to produce a 242-mer product (see above). PCR was carried out for 35 cycles. The PCR products were thereafter electrophoresed (agarose) and visualized with ethidium bromide staining.

[3] = Spectroscopic analysis of photochemical treatment (300-700 nm scan); assay type: physicochemical
Procedure: In this case 0.5 ml of untreated biliverdin in solution (diluted in 50 mM Tris pH 7.8) to a final concentration corresponding to Apeak =0.7) was scanned using a Beckman Spectrophotometer Model DU-50 between 300 and 700 nm. Photochemically treated (1.5 hours and 16 hours of irradiation) biliverdin was similarly diluted and scanned. […] This corresponds to lane 5 in FIG. 3A where no PCR inhibition was observed.
In this case 0.5 ml of untreated bilirubin in solution (diluted in 50 mM Tris, pH 7.8 to a final concentration corresponding to Apeak =0.8) was scanned using a Beckman Spectrophotometer Model DU-50 between 300 and 700 nm. Photochemically treated (20 minutes, 60 minutes and 2.5 hours of irradiation) bilirubin was similarly diluted and scanned. […] With just 20 minutes of irradiation, this peak is reduced; with just 60 minutes of irradiation, this peak is weak; with 2.5 hours, it is eliminated. The 2.5 hour treatment corresponds to lane 8 in FIG. 4A where no PCR inhibition was observed.

[4] = test system: Taq polymerase; assay: PCR inhibition, SK38/39 system, 115-mer product on ethidium bromide gel or autoradiograph; assay type: biochemical
Procedure: as §1
In other cases, amplification of HIV sequences was performed using primer pair SK-38 (SEQ ID NO:5) and SK-39 (SEQ ID NO:6) and 115-mer (SEQ ID NO:7) as target to produce a 115-mer product.
Where agarose gel electrophoresis was used, the PCR products were fractionated by electrophoresis through a 3% Nusieve/1% agarose gel in TBE buffer. Electrophoresis was typically carried out in a constant voltage of 8-10 V/cm. Following agarose gel electrophoresis, individual bands were, in most cases, visualized by ethidium bromide staining. This involved staining the agarose gel with 1 μg/ml ethidium bromide in TBE for 30 minutes followed by destaining the agarose gel with TBE for 30 minutes.
The chemical reaction was performed as follows. Two aliquots (30 mg/aliquot) of sodium borohydride (NaBH4) were added at ten minute intervals to 1 ml of 200 μM hematin (Sigma) in 1M Tris (pH 8.0) under argon in the dark. The pH was adjusted to 6.0 between additions. At the end of the reaction (20 minutes) the pH was adjusted to 1.0 and then neutralized to pH 7.0. Six aliquots (5 μl) of the product of the reaction corresponding to different amounts of reacted hematin (37.5 μM, 7.5 μM, 1.5 μM, 0.3 μM, 0.06 μM, 0.012 μM) were added to standard (20 μl) PCR reactions in different tubes using the SK38/39 system (see above). Three standard control reactions were run in separate tubes: i) a no nucleic acid target control; ii) a no primer control; and iii) a positive control (no hematin). In addition, unreacted hematin was added to four different tubes in different amounts (50 μM, 5 μM, 0.5 μM, and 0.05 μM). PCR was carried out for 30 cycles. The PCR products were thereafter electrophoresed (agarose) and visualized with ethidium bromide staining (FIG. 2A, lanes 1-13). The three above-named control reactions were electrophoresed in lanes 1, 2 and 3, respectively. […] The unreacted hematin tubes (lanes 4-7) show no product until hematin is present at a very low concentration (0.05 μM, lane 7), at which point product is evident. […] Indeed, product is evident where 1.5 μM reacted hematin or less was present. […] A score (i.e., % maximum intensity of a positive control) was given to each band. An OD unit of 1.0 corresponds to 100% of maximum intensity. After examination of a plot of the estimated OD units to the concentration of hematin (expressed in the log scale) in these PCR reactions, it is clear that approximately a thirty-fold concentration difference was achieved (reacted to unreacted).
The photochemical reaction was performed as follows. Stock biliverdin (Sigma, 5 mM) was diluted in solution (50 mM Tris pH 7.8) to a final concentration of 200 μM. Two aliquots (300 μl) were then made. One aliquot was left unreacted. The other aliquot was exposed to ultraviolet radiation from an HRI-100 for 16 hours using the industry standard, F8T5BL hot cathode dual bipin lamps. Thereafter, both the unirradiated and irradiated materials were added (5 μl) to standard (20 μl) PCR reactions in different tubes using the SK38/39 system (see above) and 10^9 copies of 115-mer target. Three standard control reactions were run in separate tubes: i) a no nucleic acid target control; ii) a positive control (no biliverdin); and iii) a no Taq control. PCR was carried out for thirty (30) cycles. The PCR products were thereafter electrophoresed (agarose) and visualized with ethidium bromide staining (FIG. 3A, lanes 1-5). […]

[5] = test system: DNA ligase from mouse erythroleukemia (MEL) cells; conditions: incubation with hemoglobin; cited from earlier work
[6] = hematin or protoporphyrin only, 500 μM stock

## [Fe+2] [Fe++]
[1]
  inhibition of PCR / Taq polymerase: inhibit PCR

## [Fe+3] [Fe^+++]
[1]
  inhibition of PCR / Taq polymerase: inhibit PCR

## [N-]=[N+]=[N-] [Sodium Azide (NaN3), Sodium Azide]
[2]; cofactor with BSA
  Effect of cofactors on serum albumin: BSA: +

## O=C(O)O [Sodium Bicarbonate (NaHCO3), Sodium Bicarbonate]
[2]
  Effect of cofactors on serum albumin: BSA: +
  Effect of cofactors on transferrin: Bovine Transferrin: +

## N#CO [Sodium Cyanate (NaOCN), Sodium Cyanate]
[2]
  Effect of cofactors on serum albumin: BSA: +
  Effect of cofactors on transferrin: Bovine Transferrin: +

## NCC(=O)O [Sodium Glycinate (NaO2 CH2 NH2), Sodium Glycinate]
[2]
  Effect of cofactors on serum albumin: BSA: +
  Effect of cofactors on transferrin: Bovine Transferrin: +

## O=C(O)CC(=O)O [Sodium Malonate (NaO2 CCH2 CO2 Na), Sodium Malonate]
[2]
  Effect of cofactors on serum albumin: BSA: +

## O=C(O)C(=O)O [Sodium Oxalate (NaO2 CCO2 Na), Sodium Oxalate]
[2]
  Effect of cofactors on serum albumin: BSA: +

## N#CS [Sodium Thiocyanate (NaSCN), Sodium Thiocyanate]
[2]
  Effect of cofactors on serum albumin: BSA: +
  Effect of cofactors on transferrin: Bovine Transferrin: +

## O=C(O)CS [Sodium Thioglycolate (NaO2 CCH2 SH), Sodium Thioglycolate]
[2]
  Effect of cofactors on serum albumin: BSA: +
  Effect of cofactors on transferrin: Bovine Transferrin: +

## C=CC1=C(C)/C(=C/c2[nH]c(Cc3[nH]c(/C=C4\NC(=O)C(C)=C4C=C)c(C)c3CCC(=O)O)c(CCC(=O)O)c2C)NC1=O [bilirubin]
[3]; 20 minutes of irradiation
  absorbance peak at approximately 450 nm after irradiation: reduced
[3]; 60 minutes of irradiation
  absorbance peak at approximately 450 nm after irradiation: weak
[3]; 2.5 hours of irradiation
  absorbance peak at approximately 450 nm after irradiation: eliminated
[4]; 400 μM bilirubin, 2.5 hrs irradiation
  PCR product: product is visible
[4]; 800 μM bilirubin, 3.5 hrs irradiation
  PCR product: product is visible
[4]; 2 mM bilirubin, 4 hrs irradiation
  PCR product: Product is not visible
[4]; unreacted bilirubin, 400 μM, 800 μM and 2 mM
  PCR inhibition: completely inhibited

## C=CC1=C(C)/C(=C/C2=NC(=C\c3[nH]c(/C=C4\NC(=O)C(C)=C4C=C)c(C)c3CCC(=O)O)/C(CCC(=O)O)=C2C)NC1=O [biliverdin]
[3]; 1.5 hours of irradiation
  absorbance peak at approximately 450 nm after irradiation: very weak
[3]; 16 hours of irradiation
  absorbance peak at approximately 450 nm after irradiation: eliminated completely
[4]; biliverdin photochemically treated 16 hrs
  PCR product: product is visible
[4]; biliverdin unirradiated, 5 μl of 200 μM in 20 μl PCR
  PCR inhibition: completely inhibited

## O=C(O)O [cofactor, sodium bicarbonate]
[2]
  PCR product: No product is visible

## C=CC1=C(C)c2cc3[n-]c(cc4[n-]c(cc5nc(cc1n2)C(C)=C5C=C)c(C)c4CCC(=O)O)c(CCC(=O)O)c3C.O.[Fe+2] [hematin]
[1]
  inhibition of PCR / Taq polymerase: potent inhibitors of Taq polymerase
  inhibitory concentration in PCR: ≥ 0.8 µM
[4]; [6]
  PCR inhibition: completely inhibited
[4]; sodium borohydride reduction, visual band intensity
  concentration difference (reacted to unreacted) in PCR inhibition: thirty
[4]; unreacted hematin, no product at 50, 5, 0.5 μM
  concentration at which PCR product is evident: 0.05 µM

## C=CC1=C(C)c2cc3[n-]c(cc4[n-]c(cc5nc(cc1n2)C(C)=C5C=C)c(C)c4CCC(=O)O)c(CCC(=O)O)c3C.[Fe+2] [heme]
[1]
  inhibitory concentration in PCR: 0.8 µM

## C=CC1=C(C)c2cc3[nH]c(cc4nc(cc5[nH]c(cc1n2)c(C)c5CCC(=O)O)C(CCC(=O)O)=C4C)c(C)c3C=C [protoporphyrin]
[1]
  inhibitory concentration in PCR: 20 µM
[4]; [6]
  PCR inhibition: completely inhibited

## hemoglobin
[5]
  inhibition of DNA ligase from MEL cells: not inhibitory

## serum albumin
[2]; serum albumin 25 μg with cofactor (lane 9)
  PCR product: weak product band
[2]; serum albumin 10 to 250 μg without cofactor
  PCR product: No product is visible
[2]; serum albumin higher concentrations with cofactor (lanes 10-16)
  PCR product: strong product bands

Reference: patent publication US5654179A, “Nucleic acid preparation methods” (HRI Research, Inc., priority 1994, dated 1997)
